Laboratory results from patent publication US7189711B2, “2, 3-benzodiazepine derivatives and pharmaceutical compositions containing the same as the active ingredient” (Egis Gyogyszergyar RT., priority 2000, dated 2007).

Legend:
male Wistar rats = experiment: Duration of action in rats as assessed from the decrease in body core temperature (radiotelemetry); format: in vivo; conditions: intraperitoneal, mean of 6 animals
Method: Duration of Action in Rats as Assessed From the Decrease in Body Core Temperature
One week prior to treatments, 6 male Wistar rats were anaesthetized by administering 60 mg/kg of pentobarbital sodium [sodium 5-ethyl-5-(1-methylbutyl)barbiturate]intraperitoneally. Using sterile surgical procedures, TL11M2C50-PXT or TA10TA-F40 type radiotelemetry transmitters (Data Sciences International, St. Paul, Minn., USA) were implanted into the peritoneal cavity of the animals. The transmitters permitted continuous monitoring of the core body temperature. After implantation, the rats were treated with an antibiotic (benzathine-benzylpenicillin was administered in a dose of 1 ml/kg i.m.). [The chemical name of benzathine-benzylpenicillin: [2S-(2α,5α,6β)]-3,3-dimethyl-7-oxo-6-[(phenoxyacetyl)amino]-4-thia-1-azabicyclo[3.2.0]heptane-2-carboxylic acid]. The animals were housed individually in type 2 plastic rat cages with free access to food and tap water.
The compounds to be examined were dissolved in a mixture of 5 volumes of 5M aqueous hydrochloric acid and 95 volumes of water, then the pH value of the solution was adjusted to 3 by the addition of 1M aqueous sodium hydroxide solution. The solution obtained was administered intraperitoneally in a volume of 10 ml/kg.
Radio signals emitted by the transmitters were detected by RLA1000 or RLA2000 type receivers placed under each cage. Data were collected and saved by a Dataquest IV computerized data acquisition system. The computer was set to sample body temperature for 10 seconds in every second minute. Mean values for 30 min. periods over the whole day were calculated running the “sort utility” of the Dataquest IV system. The upper and lower limits of the evaluating routine were set to exclude biologically improbable values. Individual body temperature curves were averaged for the 6 animals.
Peak effect (PE) was measured as the maximum decrease in body temperature in comparison to the last value prior to treatment (control value). Using the mean values, duration of action (D) of the compounds was determined. This is the time interval from treatment to return of body temperature to the control level.

male NMRI mice = experiment: Neuroprotective effect in magnesium chloride induced global cerebral ischemia in mice; format: in vivo; conditions: intraperitoneal, 30 minutes before i.v. saturated magnesium chloride; linear regression over four doses
Method: Neuroprotective Effect in Magnesium Chloride Induced Global Cerebral Ischemia in Mice
The examination was carried out on groups consisting of 10 male NMRI mice weighing 20–25 g. The compounds to be examined were dissolved in a mixture of 5 volumes of 5M aqueous hydrochloric acid and 95 volumes of water, then the pH value of the solution was adjusted to 3 by the addition of 1M aqueous sodium hydroxide solution. The solution obtained was administered intraperitoneally in a volume of 10 ml/kg. Each compound was tested at four increasing dose levels, and a further group of animals was treated only with the vehicle (the latter was the control group). 30 minutes after treatment, all mice received an intravenous injection of saturated aqueous magnesium chloride solution in a volume of 5 ml/kg. This injection caused an immediate cardiac arrest and complete cerebral ischemia. The increase in survival time (i.e. the interval between the injection of magnesium chloride and the last observable gasp) was considered as a measure of the neuroprotective effect according to Berga et al. [Berga, P. et al., Synergistic interactions between piracetam and dihydroergocristine in some animal models of cerebral hypoxia and ischaemia, Arzneim. -Forsch., 36, 1314–1320 (1986)]. Percentage changes in survival time were calculated in comparison to that measured in the control group, and, from the values obtained, the dose prolonging survival by 50% (PD50) was calculated by linear regression analysis.

[1] = N-acetylation in rat liver slices (N-acetyl metabolite by HPLC); format: in vitro ADME, Wistar rats; conditions: 50 μM compound, 37° C.
Method: Reduction of the rate of N-acetylation due to ortho substitution
Liver slices of Wistar rats were incubated in oxigenized Krebs-Ringer solution at 37° C. in the presence of 50 μM of 2,3-benzodiazepine derivative examined. 0.5 ml aliquots were taken at the beginning of the examination, then after 30 and 60 minutes. Plasma proteins were precipitated with perchloric acid and, after alkalization, the 2,3-benzodiazepine derivatives were extracted with chloroform. The chloroform solutions were evaporated to dryness, the residue was dissolved in the corresponding eluent. The 2,3-benzodiazepine derivative used and the N-acetyl metabolite thereof were determined by high pressure liquid chromatography (Beckman System Gold HPLC, C-18 reversed-phase column) using an UV detector (at 240 nm). Different eluents were used for the optimal separation of the compounds. In case of the compound according to Example 1 and the corresponding 1-(4-amino-phenyl) analogue, the eluent consisted of a mixture of 50% of 2 mM heptafluoro-butyric acid, 25% of methanol and 25% of acetonitrile. For the compound according to Example 3 and the corresponding 1-(4-amino-phenyl) analogue, the eluent was a mixture of 50% of 2 mM heptafluorobutyric acid, 20% of methanol and 30% of acetonitrile. For the compound according to Example 4 and the corresponding 1-(4-amino-phenyl) analogue, the eluent consisted of a mixture of 50% of 2 mM heptafluorobutyric acid and 50% of acetonitrile.
The percentage of N-acetyl metabolite content of the sample taken at a certain time was calculated by dividing the hundredfold of the peak area of the metabolite with the sum of the peak areas of the 2,3-benzodiazepine derivative used and the N-acetyl metabolite. The results obtained are shown in Table 1 in which the concentrations determined after 0, 30 and 60 minutes are indicated.

Compound | D (duration of action, time from treatment to return of body temperature to control level) (male Wistar rats) [h] | PE (peak effect, maximum decrease in body temperature vs. last value prior to treatment) (male Wistar rats) | PD50 (dose prolonging survival by 50%) (male NMRI mice) [mg/kg] | also measured
CC(=O)N1N=C(c2ccc(N)c(C)c2)c2cc(Cl)ccc2CC1C (racemic) [Example 1, (±)-3-Acetyl-1-(4-amino-3-methylphenyl)-4,5-dihydro-8-chloro-4-methyl-3H-2,3-benzodiazepine] | 20 | −2.34 Δ° C. | 4.6 | 
CC(=O)N1N=C(c2ccc(N)c(C)c2)c2ccc(Cl)cc2CC1C (racemic) |  |  |  | melting point: 200 to 205 °C
CC(=O)N1N=C(c2ccc(N)c(C)c2)c2cc(Cl)c(Cl)cc2CC1C (racemic) [Example 4, (±)-3-Acetyl-1-(4-amino-3-methylphenyl)-4,5-dihydro-7,8-dichloro-4-methyl-3H-2,3-benzodiazepine] | 19 | −3.09 Δ° C. | 9.0 | 
CC(=O)N1N=C(c2ccc(N)cc2)c2cc(Cl)ccc2CC1C (stereo not shown) [Example 1a, 3-acetyl-1-(4-amino-phenyl)-4,5-dihydro-8-chloro-4-methyl-3H-2,3-benzo-diazepine, reference compound] |  |  | 10.4 | 
CC(=O)N1N=C(c2ccc(N)cc2)c2cc(Cl)ccc2CC1C (stereo not shown) [Example 1a, 3-acetyl-1-(4-amino-phenyl)-4,5-dihydro-8-chloro-4-methyl-3H-2,3-benzo-diazepine] |  |  |  | Amount of N-acetyl metabolite in % ([1]; incubation time 0 min): 0%; Amount of N-acetyl metabolite in % ([1]; incubation time 30 min): 18%; Amount of N-acetyl metabolite in % ([1]; incubation time 60 min): 31%
CC(=O)N1N=C(c2ccc(N)c(Cl)c2)c2cc(Cl)ccc2CC1C (racemic) [Example 3, (±)-3-Acetyl-1-(4-amino-3-chlorophenyl)-4,5-dihydro-8-chloro-4-methyl-3H-2,3-benzodiazepine] |  |  |  | melting point: 143 to 144 °C
COc1ccc2c(c1)C(c1ccc(N)c(C)c1)=NN(C(C)=O)C(C)C2 (racemic) |  |  |  | melting point: 169 to 171 °C
CC(=O)N1N=C(c2ccc(N)cc2)c2cc(Cl)c(Cl)cc2CC1C (stereo not shown) [Example 4a, 3-acetyl-1-(4-amino-phenyl)-4,5-dihydro-7,8-dichloro-4-methyl-3H-2,3-benzo-diazepine, reference compound] | 3.5 | −1.72 Δ° C. | 11.0 | 
CCC(=O)N1N=C(c2ccc(N)c(C)c2)c2cc(Cl)ccc2CC1C (racemic) [Example 2, (±)-1-(4-Amino-3-methylphenyl)-4,5-dihydro-8-chloro-4-methyl-3-propionyl-3H-2,3-benzodiazepine] | 6 | −2.04 Δ° C. |  | 
CCC(=O)N1N=C(c2ccc(N)c(C)c2)c2cc(Cl)c(Cl)cc2CC1C (racemic) [Example 5, (±)-1-(4-Amino-3-methylphenyl)-4,5-dihydro-7,8-dichloro-4-methyl-3-propionyl-3H-2,3-benzodiazepine] |  |  | 12.3 | 
CCC(=O)N1N=C(c2ccc(N)cc2)c2cc(Cl)ccc2CC1C (stereo not shown) [Example 2a, 1-(4-aminophenyl)-4,5-dihydro-8-chloro-4-methyl-3-propionyl-3H-2,3-benzo-diazepine, reference compound] | 4 | −1.87 Δ° C. |  | 
CCC(=O)N1N=C(c2ccc(N)cc2)c2cc(Cl)c(Cl)cc2CC1C (stereo not shown) [Example 5a, 1-(4-aminophenyl)-4,5-dihydro-7,8-dichloro-4-methyl-3-propionyl-3H-2,3-benzo-diazepine, reference compound] |  |  | 14.6 | 
